Measurements published in the NIST ThermoML archive (doi:10.1021/je900749a).

Assay: cn = amount concentration of the nth substance listed, in mol/dm3
Conditions: 300 K, Ring tensiometer

CN(C)CCC=C1c2ccccc2CCc2ccccc21.Cl + O
Conditions | surface tension liquid-gas [mN/m]
c1 = 0.001584 | 69.15
c1 = 0.003138 | 62.75
c1 = 0.009057 | 55.25
c1 = 0.01455 | 50.75
c1 = 0.02441 | 46.1
c1 = 0.02885 | 44.55
c1 = 0.03301 | 43.15
c1 = 0.0406 | 42.55
c1 = 0.04572 | 42.5

CN(C)CCCN1c2ccccc2CCc2ccccc21.Cl + O
Conditions | surface tension liquid-gas [mN/m]
c1 = 0.003658 | 68.55
c1 = 0.007143 | 62.15
c1 = 0.01364 | 54.6
c1 = 0.01957 | 51.7
c1 = 0.03 | 47.05
c1 = 0.03889 | 43.75
c1 = 0.04287 | 43
c1 = 0.04655 | 42.3
c1 = 0.05 | 42.3
c1 = 0.05769 | 42.3

CN(C)CCCN1c2ccccc2Sc2ccc(Cl)cc21.Cl + O
Conditions | surface tension liquid-gas [mN/m]
c1 = 0.001381 | 65.7
c1 = 0.002344 | 60.5
c1 = 0.003289 | 57.15
c1 = 0.004762 | 53.4
c1 = 0.006542 | 50.5
c1 = 0.009091 | 47.15
c1 = 0.01228 | 45.2
c1 = 0.01525 | 44.15
c1 = 0.01666 | 44
c1 = 0.01803 | 44.05
c1 = 0.01936 | 44

CC(CN1c2ccccc2Sc2ccccc21)N(C)C.Cl (stereo not given) [promethazine hydrochloride] + O
Conditions | surface tension liquid-gas [mN/m]
c1 = 0.002941 | 71.3
c1 = 0.005769 | 64.15
c1 = 0.01111 | 56.45
c1 = 0.01842 | 50.35
c1 = 0.02903 | 46.45
c1 = 0.03637 | 43.4
c1 = 0.04287 | 42.55
c1 = 0.04865 | 42.2
c1 = 0.05385 | 42.1
c1 = 0.05853 | 42.15
